From patent US20210322545A1 (priority 2016, published 2021)
“And” between values parts separate entries of the source, which are not always exact repeats. Identical values can stand only once. “Also recorded” adds a separate entry of the source. Like-named read-outs stand apart in the source and are kept apart here.

Experiments:
[1] = tested on: intracranial CT-2A tumors; details: mouse, in vivo
SNB75 cells [2] = format: cell-based, human
MM cells = format: cell-based
HT-29 tumors = details: mouse, in vivo
[3] = tested on: U266, MM1R and MM1S cells
[4] = tested on: intracranial CT-2A tumors; details: mouse, in vivo; remark: listed apart in the source
EMT6 mammary tumors = format: in vivo, mouse
glioma cells = format: cell-based
MPC-11 Fluc cells = details: mouse, in vivo
[5] = mouse, in vivo
glioblastoma cells = format: cell-based
[6] = tested on: intracranial GL261 tumors; details: mouse, in vivo
CT-26 tumors = details: mouse, in vivo, sc
serum cytokines = details: mouse, in vivo
Procedure: The detection of serum proteins following combinatorial SMC and anti-PD-1 treatment was analyzed by a flow cytometry-based multiplex kit (LEGENDplex inflammation panel from Biolegend).

SNB75 cells [7] = experiment: cells; format: cell-based; details: Homo sapiens, SNB-75, read-out: EC50 of SMC therapy
VSVΔ51 = format: cell-based
EMT6, 4T1 or CT-2A cells = details: mouse, in vivo
CD8 T-cells = format: cell-based, mouse
cancer cells = format: cell-based
EMT6 cells [8] = experiment: cells; format: cell-based; details: Mus musculus, EMT6, read-out: EC50 of SMC therapy
EMT6 cells [9] = format: cell-based, mouse
[10] = tested on: U266, MM1R and MM1S cells; format: cell-based, human
TNF-α = details: mouse, in vivo, ip
[11] = tested on: CT-2A and K1580 glioblastoma cells; format: cell-based, mouse
[12] = EMT6 tumors, 50 mg/kg LCL161 oral gavage

Source text for cIAP1/2 and XIAP: Cells were scraped, collected by centrifugation and lysed in RIPA lysis buffer containing a protease inhibitor cocktail (Roche, Laval, Canada). Equal amounts of soluble protein were separated on polyacrylamide gels followed by transfer to nitrocellulose membranes. […] Our rabbit anti-rat IAP1 and IAP3 polyclonal antibodies were used to detect human and mouse cIAP1/2 and XIAP, respectively. AlexaFluor680 (Invitrogen) or IRDye800 (Li-Cor, Lincoln, USA) were used to detect the primary antibodies, and infrared fluorescent signals were detected using the Odyssey Infrared Imaging System (Li-Cor).
Cells were scraped, collected by centrifugation, and lysed in RIPA lysis buffer containing a protease inhibitor cocktail (Roche). Tumors were excised, minced, and lysed as above. Equal amounts of soluble protein were separated on polyacrylamide gels followed by transfer to nitrocellulose membranes. […] Rabbit anti-rat IAP1 and IAP3 polyclonal antibodies were used to detect human and mouse cIAP1/2 and XIAP, respectively (1:5000; Cyclex Co.). AlexaFluor680 (Invitrogen) or IRDye800 (Li-Cor) (1:2500) were used to detect the primary antibodies, and infrared fluorescent signals were detected using the Odyssey Infrared Imaging System (Li-Cor).

CC[C@H](NC(=O)[C@H](C)NC)C(=O)N1C[C@@H](O)C[C@H]1Cc1c(-c2[nH]c3cc(F)ccc3c2C[C@@H]2C[C@H](O)CN2C(=O)[C@H](CC)NC(=O)[C@H](C)NC)[nH]c2cc(F)ccc12 [Birinapant]
survival ([1]; ip): significant increase in survival

CN[C@@H](C)C(=O)N[C@H](C(=O)N1CCC[C@H]1c1nc(C(=O)c2ccc(F)cc2)cs1)C1CCCCC1 [LCL161]
effect of SMC on induction of TRAIL and TNFα by IFNβ (SNB75 cells [2]): potentiated the induction
cIAP1 and cIAP2 protein (MM cells): rapid degradation of cIAP1 and cIAP2
effect on HT-29 tumors, monotherapy (HT-29 tumors): neither monotherapy had any effect
PD-L1 expression [3]: Comparable upregulation
CD4+ and CD25+ T-cells (Treg) in tumors [4]: significant decrease
CD4+ cells expressing IFN-γ [4]: decrease in the proportion of CD4+ cells expressing IFN-γ
CD8+ T-cells expressing PD-1 in tumors [4]: significant increase in CD8+ T-cells expressing PD-1
CD3+ and CD3+ CD8+ cells expressing PD-1 ([4]; po, 75 mg/kg): robust increase
tumor response, oral SMC + BCG (EMT6 mammary tumors; BCG intratumorally or intraperitoneally): significant tumor regression
durable cure rate (EMT6 mammary tumors; mouse, in vivo): 75%
durable cures of treated mice (EMT6 mammary tumors; mouse, in vivo): 88%
tumor growth and survival, single agent (EMT6 mammary tumors; mouse, in vivo): a decrease in the rate of tumor growth and a modest extension in survival; also recorded: slightly delayed EMT6 tumor growth rates and slightly extended the survival
cure rate (EMT6 mammary tumors; mouse, in vivo, ip): 57%
durable cures of treated mice (EMT6 mammary tumors; mouse, in vivo, ip): 60%
surface expression of PD-L1 and MHC I markers (glioma cells): no significant impact
tolerability, combination treatment (MPC-11 Fluc cells): not well tolerated
tumour burden (luminescence signal) (MPC-11 Fluc cells): almost no tumour burden
tumour burden, combination treatment (MPC-11 Fluc cells): did not reduce tumour burden as effectively as VSVΔ51 alone
tolerability [5]: well tolerated
tolerability of combination therapies [5]: well tolerated
body weight after a single treatment ([5]; po, 50 mg/kg): minimal transient weight loss
death of cultured and primary glioblastoma cell lines (glioblastoma cells): killed
sensitivity of CT-2A cells to combined SMC and recombinant IFN-α (glioblastoma cells): partially sensitive
durable cure rate [6]: 33%
duration of cIAP1/2 knockdown in tumors (cIAP1/2 and XIAP; [12]): at least 24 hrs
duration of cIAP1/2 knockdown in tumors, in some cases (up to) (cIAP1/2 and XIAP; [12]): 48 to 72 h
IAP levels in intracranial CT-2A tumors (cIAP1/2 and XIAP; direct intracranial injection, 10 μL of a 100 μM solution): potent down-regulation of both cIAP1/2 and XIAP proteins
IAP levels in intracranial CT-2A tumors (cIAP1/2 and XIAP; systemic SMC, several hours after drug administration, indicative of crossing the BBB): degradation of cIAP1/2 proteins
cure rate [1]: 50%
cure rate upon depletion of CD4+ T-cells [1]: 100%
cure rate upon depletion of CD8+ T-cells [1]: completely abrogated
durable cures [1]: 86% and 55%
effect of IFNAR1 blocking antibody on SMC + anti-PD1 survival synergy [1]: negated the synergistic effects
effect of anti-IFN-γ antibody on SMC + ICI synergy [1]: partially inhibited the synergistic effects
effect of systemic TNF-α blockade on SMC + ICI efficacy [1]: almost a complete reversal of the efficacy
neurotoxicity [1]: did not result in any overt neurotoxicity
physical or behavioral defects in long-term survivors [1]: no overt physical or behavioral defects
expected survival rate ([1]; po): 86%
tumor growth and survival, single agent (CT-26 tumors): modest decrease of the tumor growth rate and a slight extension of survival
serum IFN-, IL-1-α, IL-1β, IL-17, IFN-γ, IL-27, GM-CSF (serum cytokines): statistically significant increases
EC50 (SNB75 cells [7]): > 2500 nM
effect of SMC treatment on growth kinetics of VSVΔ51 (VSVΔ51): does not affect the growth kinetics
tumor engraftment on rechallenge of cured mice (EMT6, 4T1 or CT-2A cells): completely resistant to tumor engraftment
CD8+ T-cells expressing TNF-α (CD8 T-cells): significantly increased the proportion of CD8+ T-cells expressing TNF-α
cell death by UV-inactivated conditioned media of VSVΔ51-infected cells (cancer cells): induced cell death only when the cells were co-treated with an SMC
EC50 (EMT6 cells [8]): > 2500 nM

CC(C)Cn1cnc2c(N)nc3ccccc3c21 [imiquimod]
bystander death of SMC treated EMT6 cells (EMT6 cells [9]): required splenocytes

IFNα
tumor growth and survival, single agent (EMT6 mammary tumors; mouse, in vivo): no effect on EMT6 tumor growth or overall survival
neurotoxicity [1]: did not result in any overt neurotoxicity
physical or behavioral defects in long-term survivors [1]: no overt physical or behavioral defects
killing of MM cells with SMC [10]: very strong synergistic killing

poly(I:C)
bystander death of SMC treated EMT6 cells (EMT6 cells [9]): led to EMT6 cell death directly
tumor growth and survival, single agent (EMT6 mammary tumors; mouse, in vivo): no bearing on tumor growth
TNFα levels from the brain (TNF-α): marked up-regulation
toxicity of intracranial administration [5]: without overt toxicities
cell death by brain lysates of treated mice in the presence of SMCs [11]: enhanced cell death
physical or behavioral defects in long-term survivors [1]: no overt physical or behavioral defects
